ChEMBL document CHEMBL1921670, “Discovery and optimization of indole and 7-azaindoles as Rho kinase (ROCK) inhibitors (part-II)” (Bioorg Med Chem Lett, 2011)

How the values were obtained:
[1] = Inhibition of PKA
[2] = target: Rho-associated protein kinase 2 (Homo sapiens, UniProt O75116); experiment: Inhibition of ROCK2
[3] = target: Rho-associated protein kinase 1 (Homo sapiens, UniProt Q13464); experiment: Inhibition of ROCK1
[4] = Half life in human liver microsomes; assay type: ADME, Microsome
CYP1A2 = target: T1, CYP1A2 (Homo sapiens, UniProt P05177); experiment: Inhibition of CYP1A2 at 10 uM; assay type: ADME
T1 sequence (P05177 whole entry): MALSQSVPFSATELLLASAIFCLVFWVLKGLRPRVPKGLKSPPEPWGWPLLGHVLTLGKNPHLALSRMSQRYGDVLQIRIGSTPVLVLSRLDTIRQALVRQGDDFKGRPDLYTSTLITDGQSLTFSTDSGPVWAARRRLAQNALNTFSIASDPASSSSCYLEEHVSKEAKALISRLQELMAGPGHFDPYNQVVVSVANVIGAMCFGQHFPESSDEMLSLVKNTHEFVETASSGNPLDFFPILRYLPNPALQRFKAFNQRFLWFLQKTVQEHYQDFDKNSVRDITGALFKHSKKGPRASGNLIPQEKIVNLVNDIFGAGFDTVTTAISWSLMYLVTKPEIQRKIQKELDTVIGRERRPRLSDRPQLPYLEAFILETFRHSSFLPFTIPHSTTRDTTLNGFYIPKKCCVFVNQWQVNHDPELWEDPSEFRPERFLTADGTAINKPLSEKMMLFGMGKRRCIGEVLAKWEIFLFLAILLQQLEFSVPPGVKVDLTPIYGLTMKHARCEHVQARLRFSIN

CYP2C9 = CYP2C9 (Homo sapiens, UniProt P11712); experiment: Inhibition of CYP2C9 at 10 uM; assay type: ADME
CYP2C9, sequence (P11712 whole entry): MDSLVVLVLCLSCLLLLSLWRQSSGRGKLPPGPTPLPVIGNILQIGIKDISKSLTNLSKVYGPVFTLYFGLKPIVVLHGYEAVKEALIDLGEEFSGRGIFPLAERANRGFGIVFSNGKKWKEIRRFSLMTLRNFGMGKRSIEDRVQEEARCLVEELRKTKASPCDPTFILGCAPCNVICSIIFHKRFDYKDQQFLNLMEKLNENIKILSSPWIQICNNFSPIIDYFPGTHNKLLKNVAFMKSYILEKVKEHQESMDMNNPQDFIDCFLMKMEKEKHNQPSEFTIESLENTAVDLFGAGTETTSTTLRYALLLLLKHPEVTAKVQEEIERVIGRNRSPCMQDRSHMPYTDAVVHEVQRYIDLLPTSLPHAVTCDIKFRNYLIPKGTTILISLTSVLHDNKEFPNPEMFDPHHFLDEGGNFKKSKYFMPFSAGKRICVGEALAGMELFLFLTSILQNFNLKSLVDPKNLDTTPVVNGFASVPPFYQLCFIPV

CYP2D6 = CYP2D6 (Homo sapiens, UniProt P10635); experiment: Inhibition of CYP2D6 at 10 uM; assay type: ADME
CYP2D6, sequence (P10635 whole entry): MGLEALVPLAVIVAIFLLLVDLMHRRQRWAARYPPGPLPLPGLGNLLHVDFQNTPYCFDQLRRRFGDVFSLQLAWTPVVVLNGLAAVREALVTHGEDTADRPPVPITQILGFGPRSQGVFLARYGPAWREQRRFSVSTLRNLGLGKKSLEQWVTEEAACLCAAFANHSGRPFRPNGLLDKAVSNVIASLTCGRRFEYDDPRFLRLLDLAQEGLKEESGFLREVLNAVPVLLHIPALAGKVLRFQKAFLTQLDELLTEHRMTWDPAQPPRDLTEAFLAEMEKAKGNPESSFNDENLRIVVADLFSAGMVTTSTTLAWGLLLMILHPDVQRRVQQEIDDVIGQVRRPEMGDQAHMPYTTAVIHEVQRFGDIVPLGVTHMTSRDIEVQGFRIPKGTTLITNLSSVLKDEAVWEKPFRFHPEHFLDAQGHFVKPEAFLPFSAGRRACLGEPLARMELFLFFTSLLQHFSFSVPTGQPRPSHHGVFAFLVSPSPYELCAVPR

CYP3A4 = CYP3A4 (Homo sapiens, UniProt P08684); experiment: Inhibition of CYP3A4 at 10 uM; assay type: ADME
CYP3A4, sequence (P08684 whole entry): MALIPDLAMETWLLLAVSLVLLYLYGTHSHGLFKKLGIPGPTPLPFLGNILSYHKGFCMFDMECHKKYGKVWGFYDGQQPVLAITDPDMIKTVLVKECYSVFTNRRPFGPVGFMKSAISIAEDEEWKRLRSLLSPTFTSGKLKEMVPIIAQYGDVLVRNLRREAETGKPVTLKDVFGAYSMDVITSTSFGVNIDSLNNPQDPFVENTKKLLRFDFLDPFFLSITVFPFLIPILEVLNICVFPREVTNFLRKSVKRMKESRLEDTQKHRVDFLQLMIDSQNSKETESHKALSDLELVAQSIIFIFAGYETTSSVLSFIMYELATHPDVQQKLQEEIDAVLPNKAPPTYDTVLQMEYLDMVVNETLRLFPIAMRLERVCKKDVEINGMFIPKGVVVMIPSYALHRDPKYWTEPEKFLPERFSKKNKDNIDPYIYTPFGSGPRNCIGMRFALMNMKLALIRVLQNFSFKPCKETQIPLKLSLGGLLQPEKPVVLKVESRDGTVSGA

[5] = Inhibition of myosin light chain bisphosphorylation by cell-based assay

Rho-associated protein kinase 1, sequence (Q13464 whole entry): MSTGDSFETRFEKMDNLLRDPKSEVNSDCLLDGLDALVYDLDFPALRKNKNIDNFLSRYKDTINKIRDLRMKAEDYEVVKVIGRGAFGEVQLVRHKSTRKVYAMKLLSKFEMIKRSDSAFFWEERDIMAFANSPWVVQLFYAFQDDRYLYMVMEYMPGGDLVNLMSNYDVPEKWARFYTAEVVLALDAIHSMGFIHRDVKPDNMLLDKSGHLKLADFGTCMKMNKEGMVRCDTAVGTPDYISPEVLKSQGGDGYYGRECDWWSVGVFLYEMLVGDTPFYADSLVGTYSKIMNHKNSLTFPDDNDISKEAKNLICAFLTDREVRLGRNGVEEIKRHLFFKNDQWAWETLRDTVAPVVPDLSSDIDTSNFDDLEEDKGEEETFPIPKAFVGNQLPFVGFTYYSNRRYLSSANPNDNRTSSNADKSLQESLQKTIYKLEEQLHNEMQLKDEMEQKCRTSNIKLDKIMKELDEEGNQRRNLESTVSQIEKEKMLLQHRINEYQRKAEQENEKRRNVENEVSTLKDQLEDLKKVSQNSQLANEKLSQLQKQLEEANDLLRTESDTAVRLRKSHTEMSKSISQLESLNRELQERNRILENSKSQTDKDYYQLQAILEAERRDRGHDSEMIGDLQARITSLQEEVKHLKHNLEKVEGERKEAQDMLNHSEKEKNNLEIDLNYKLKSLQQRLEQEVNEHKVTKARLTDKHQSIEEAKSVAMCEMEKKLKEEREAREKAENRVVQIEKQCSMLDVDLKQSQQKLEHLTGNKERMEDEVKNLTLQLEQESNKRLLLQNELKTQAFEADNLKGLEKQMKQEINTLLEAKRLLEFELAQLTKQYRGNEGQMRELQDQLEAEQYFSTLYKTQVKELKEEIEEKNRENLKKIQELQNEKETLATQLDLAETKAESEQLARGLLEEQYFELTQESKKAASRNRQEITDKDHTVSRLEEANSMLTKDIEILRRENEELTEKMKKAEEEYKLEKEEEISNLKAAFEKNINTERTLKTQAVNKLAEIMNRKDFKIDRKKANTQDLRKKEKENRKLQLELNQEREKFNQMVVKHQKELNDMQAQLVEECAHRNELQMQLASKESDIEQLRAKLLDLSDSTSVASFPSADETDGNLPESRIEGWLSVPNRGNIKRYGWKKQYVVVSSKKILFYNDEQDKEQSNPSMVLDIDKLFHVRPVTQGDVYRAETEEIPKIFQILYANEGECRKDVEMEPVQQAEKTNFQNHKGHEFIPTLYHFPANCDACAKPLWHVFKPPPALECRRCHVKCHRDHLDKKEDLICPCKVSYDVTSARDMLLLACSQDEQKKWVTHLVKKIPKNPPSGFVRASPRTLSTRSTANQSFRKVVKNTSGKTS
Rho-associated protein kinase 2, sequence (O75116 whole entry): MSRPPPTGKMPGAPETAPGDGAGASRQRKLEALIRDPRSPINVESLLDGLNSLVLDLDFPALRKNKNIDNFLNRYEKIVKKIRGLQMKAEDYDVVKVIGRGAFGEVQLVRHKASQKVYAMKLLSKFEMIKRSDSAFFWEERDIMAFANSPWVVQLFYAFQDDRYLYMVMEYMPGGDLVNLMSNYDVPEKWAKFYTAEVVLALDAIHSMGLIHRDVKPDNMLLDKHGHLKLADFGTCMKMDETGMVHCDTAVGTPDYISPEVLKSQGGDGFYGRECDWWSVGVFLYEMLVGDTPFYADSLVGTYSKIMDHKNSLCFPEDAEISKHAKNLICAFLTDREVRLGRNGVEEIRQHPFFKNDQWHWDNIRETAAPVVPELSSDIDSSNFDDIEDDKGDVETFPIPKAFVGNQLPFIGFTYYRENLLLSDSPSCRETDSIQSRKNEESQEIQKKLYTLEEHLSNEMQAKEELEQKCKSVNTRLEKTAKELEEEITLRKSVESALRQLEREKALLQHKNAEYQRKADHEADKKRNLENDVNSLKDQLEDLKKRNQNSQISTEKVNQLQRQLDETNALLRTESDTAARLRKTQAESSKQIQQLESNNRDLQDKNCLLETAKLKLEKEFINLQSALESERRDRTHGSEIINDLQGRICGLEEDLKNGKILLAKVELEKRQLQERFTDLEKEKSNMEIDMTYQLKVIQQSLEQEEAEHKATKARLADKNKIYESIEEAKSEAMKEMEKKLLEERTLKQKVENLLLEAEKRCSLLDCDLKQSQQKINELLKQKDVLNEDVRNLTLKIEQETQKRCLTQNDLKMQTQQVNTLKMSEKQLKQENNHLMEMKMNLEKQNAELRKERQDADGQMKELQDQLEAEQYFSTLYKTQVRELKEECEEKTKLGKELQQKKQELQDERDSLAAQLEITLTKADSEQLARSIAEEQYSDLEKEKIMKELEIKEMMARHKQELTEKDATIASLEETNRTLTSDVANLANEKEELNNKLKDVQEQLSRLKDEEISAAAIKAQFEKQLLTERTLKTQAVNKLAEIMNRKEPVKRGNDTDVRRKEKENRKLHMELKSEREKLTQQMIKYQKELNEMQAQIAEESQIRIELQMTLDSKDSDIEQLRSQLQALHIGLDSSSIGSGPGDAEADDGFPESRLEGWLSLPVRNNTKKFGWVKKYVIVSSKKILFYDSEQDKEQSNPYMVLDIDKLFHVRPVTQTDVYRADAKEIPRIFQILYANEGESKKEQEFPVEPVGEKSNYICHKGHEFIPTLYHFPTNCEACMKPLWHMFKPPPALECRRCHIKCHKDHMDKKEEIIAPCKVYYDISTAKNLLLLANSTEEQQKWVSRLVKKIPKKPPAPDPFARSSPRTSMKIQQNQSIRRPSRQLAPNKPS

With COc1cccc(CNC(=O)c2c[nH]c3nc(-c4cn[nH]c4)ccc23)c1 the IC50 [1] was 8000 nM.
Work on COc1cccc(CN(CC[N+]2(C)CCCC2)C(=O)c2cc3ccc(-c4cn[nH]c4)nc3n2C)c1 yielded an IC50 [2] of 1900 nM, an IC50 [3] of 6600 nM and an IC50 [1] of 3700 nM.
COc1cccc(CNC(=O)c2cc3ccc(-c4cn[nH]c4)nc3n2Cc2cccc(OC)c2)c1 gave an IC50 [2] of 4400 nM and an IC50 [3] of over 20000 nM.
Work on COc1cccc(CN(C(=O)c2c[nH]c3nc(-c4cn[nH]c4)ccc23)C2CC2)c1 yielded an IC50 [2] of 6 nM, an IC50 [3] of 30 nM and an IC50 [1] of over 20000 nM. It also gave a half-life [4] of 9 min, an inhibition at 10 µM (CYP1A2) of -5% and an inhibition at 10 µM (CYP2C9) of 91%. It also gave an inhibition at 10 µM (CYP2D6) of 25% and an inhibition at 10 µM (CYP3A4) of 56%.
Work on COc1cccc(CNC(=O)c2cn(C)c3cc(-c4cn[nH]c4)ccc23)c1 yielded an IC50 [2] of under 1 nM, an IC50 [3] of under 1 nM and an IC50 [1] of 87 nM. It also gave an IC50 [5] of 4 nM, a half-life [4] of 9 min and an inhibition at 10 µM (CYP1A2) of 23%. For the same compound, the inhibition at 10 µM (CYP2C9) was 93%, the inhibition at 10 µM (CYP2D6) was 53% and the inhibition at 10 µM (CYP3A4) was 87%.
Work on COc1cccc(CN(C)C(=O)c2cc3ccc(-c4cn[nH]c4)cc3[nH]2)c1 yielded an IC50 [2] of 3 nM, an IC50 [3] of 37 nM and an IC50 [1] of 2800 nM. The IC50 [5] was 70 nM, the half-life [4] was 46 min and the inhibition at 10 µM (CYP1A2) was -7%. It also gave an inhibition at 10 µM (CYP2C9) of 27%, an inhibition at 10 µM (CYP2D6) of 9% and an inhibition at 10 µM (CYP3A4) of 2%.
Compound COc1cccc(CN(C)C(=O)c2cn(C)c3cc(-c4cn[nH]c4)ccc23)c1 has an IC50 [2] of under 1 nM, an IC50 [3] of 3 nM and an IC50 [1] of 680 nM. The IC50 [5] was 17 nM, the half-life [4] was 4 min and the inhibition at 10 µM (CYP1A2) was 23%. The inhibition at 10 µM (CYP2C9) was 93%, the inhibition at 10 µM (CYP2D6) was 58% and the inhibition at 10 µM (CYP3A4) was 70%.
For COc1cccc(CNC(=O)c2cc3ccc(-c4cn[nH]c4)cc3n2CCN(C)C)c1, the IC50 [2] was 310 nM, the IC50 [3] was 710 nM and the IC50 [1] was over 20000 nM.
Compound COc1cccc(CNC(=O)c2cc3ccc(-c4cn[nH]c4)nc3n2CC2CC2)c1 has an IC50 [2] of 150 nM, an IC50 [3] of 280 nM and an IC50 [1] of 5000 nM.
Work on COc1cccc(CNC(=O)c2[nH]c3cc(-c4cn[nH]c4)ccc3c2CN2CCCNCC2)c1 yielded an IC50 [2] of under 1 nM, an IC50 [3] of 8 nM and an IC50 [1] of 385 nM. The half-life [4] was 50 min, the inhibition at 10 µM (CYP1A2) was 41% and the inhibition at 10 µM (CYP2C9) was 53%. For the same compound, the inhibition at 10 µM (CYP2D6) was 81% and the inhibition at 10 µM (CYP3A4) was 51%.
In the case of COc1cccc(CNC(=O)c2cc3ccc(-c4cn[nH]c4)cc3n2CCCO)c1, the IC50 [2] is reported as 24 nM, the IC50 [3] is reported as 88 nM and the IC50 [1] is reported as 1800 nM.
COc1cccc(CNC(=O)c2cn(CCCO)c3cc(-c4cn[nH]c4)ccc23)c1 showed an IC50 [2] of 1 nM, an IC50 [3] of 3 nM and an IC50 [1] of 900 nM. For the same compound, the half-life [4] was 21 min, the inhibition at 10 µM (CYP1A2) was 71% and the inhibition at 10 µM (CYP2C9) was 87%. It also gave an inhibition at 10 µM (CYP2D6) of 32% and an inhibition at 10 µM (CYP3A4) of 63%.
With COc1cccc(CN(CCCN(C)C)C(=O)c2cn(C)c3cc(-c4cn[nH]c4)ccc23)c1 the IC50 [2] was 1 nM, the IC50 [3] was 13 nM and the IC50 [1] was 2810 nM. For the same compound, the IC50 [5] was 53 nM, the half-life [4] was 14 min and the inhibition at 10 µM (CYP1A2) was 4%. It also gave an inhibition at 10 µM (CYP2C9) of 28%, an inhibition at 10 µM (CYP2D6) of 31% and an inhibition at 10 µM (CYP3A4) of 31%.
Compound COc1cccc(CN(C)C(=O)c2cc3ccc(-c4cn[nH]c4)cc3n2CCN(C)C)c1 has an IC50 [2] of 2300 nM, an IC50 [3] of 6900 nM and an IC50 [1] of over 20000 nM.
Compound CCN(Cc1cccc(OC)c1)C(=O)c1c[nH]c2nc(-c3cn[nH]c3)ccc12 has an IC50 [2] of 19 nM, an IC50 [3] of 76 nM and an IC50 [1] of 5000 nM.
For COc1cccc(CN(CCCN2CCN(C)CC2)C(=O)c2c[nH]c3nc(-c4cn[nH]c4)ccc23)c1, the IC50 [2] was 62 nM, the IC50 [3] was 260 nM and the IC50 [1] was 3700 nM.
Work on COc1cccc(CNC(=O)c2[nH]c3nc(-c4cn[nH]c4)ccc3c2CN2CCN(C)CC2)c1 yielded an IC50 [2] of 8 nM, an IC50 [3] of 39 nM and an IC50 [1] of 911 nM. For the same compound, the half-life [4] was 1 min, the inhibition at 10 µM (CYP1A2) was -15% and the inhibition at 10 µM (CYP2C9) was -26%. The inhibition at 10 µM (CYP2D6) was 60% and the inhibition at 10 µM (CYP3A4) was 34%.
With COc1cccc(CNC(=O)c2cn(-c3ccccc3)c3cc(-c4cn[nH]c4)ccc23)c1 the IC50 [2] was 5 nM, the IC50 [3] was 21 nM and the half-life [4] was 10 min. For the same compound, the inhibition at 10 µM (CYP1A2) was 36%, the inhibition at 10 µM (CYP2C9) was 96% and the inhibition at 10 µM (CYP2D6) was 76%. The inhibition at 10 µM (CYP3A4) was 93%.
With COc1cccc(CN(CCN2CCCC2)C(=O)c2cc3ccc(-c4cn[nH]c4)cc3[nH]2)c1 the IC50 [2] was 11 nM, the IC50 [3] was 62 nM and the IC50 [1] was 1640 nM. For the same compound, the IC50 [5] was 206 nM, the half-life [4] was 49 min and the inhibition at 10 µM (CYP1A2) was -2%. It also gave an inhibition at 10 µM (CYP2C9) of 65%, an inhibition at 10 µM (CYP2D6) of 78% and an inhibition at 10 µM (CYP3A4) of 59%.
In the case of COc1cccc(CN(C)C(=O)c2cc3ccc(-c4cn[nH]c4)cc3n2C)c1, the IC50 [2] is reported as 200 nM, the IC50 [3] is reported as 1100 nM and the IC50 [1] is reported as over 20000 nM.
With COc1cccc(CN(CCN(C)C)C(=O)c2cn(C)c3cc(-c4cn[nH]c4)ccc23)c1 the IC50 [2] was 1 nM, the IC50 [3] was 9 nM and the IC50 [1] was 2200 nM. It also gave an IC50 [5] of 34 nM, a half-life [4] of 8 min and an inhibition at 10 µM (CYP1A2) of 3%. For the same compound, the inhibition at 10 µM (CYP2C9) was 62%, the inhibition at 10 µM (CYP2D6) was 52% and the inhibition at 10 µM (CYP3A4) was 36%.
Work on COc1cccc(CN(C)C(=O)c2cn(CCN(C)C)c3cc(-c4cn[nH]c4)ccc23)c1 yielded an IC50 [2] of 9 nM, an IC50 [3] of 110 nM and an IC50 [1] of over 20000 nM.
Work on COc1cccc(CN(CCN(C)C)C(=O)c2cn(CCN3CCCC3)c3cc(-c4cn[nH]c4)ccc23)c1 yielded an IC50 [2] of 2800 nM, an IC50 [3] of 8900 nM and an IC50 [1] of over 20000 nM.
Compound COc1cccc(CNC(=O)c2cn(C)c3nc(-c4cn[nH]c4)ccc23)c1 has an IC50 [2] of under 1 nM, an IC50 [3] of under 1 nM and an IC50 [1] of 720 nM. The half-life [4] was 13 min, the inhibition at 10 µM (CYP1A2) was -2% and the inhibition at 10 µM (CYP2C9) was 77%. The inhibition at 10 µM (CYP2D6) was 23% and the inhibition at 10 µM (CYP3A4) was 68%.
For COc1cccc(CNC(=O)c2[nH]c3cc(-c4cn[nH]c4)ccc3c2CN(C)C)c1, the IC50 [2] was 9 nM, the IC50 [3] was 34 nM and the IC50 [1] was 1500 nM. It also gave a half-life [4] of 68 min, an inhibition at 10 µM (CYP1A2) of 18% and an inhibition at 10 µM (CYP2C9) of 27%. The inhibition at 10 µM (CYP2D6) was 48% and the inhibition at 10 µM (CYP3A4) was 19%.
Compound COc1cccc(CNC(=O)c2[nH]c3nc(-c4cn[nH]c4)ccc3c2CN2CCOCC2)c1 has an IC50 [2] of 16 nM, an IC50 [3] of 91 nM and an IC50 [1] of 6100 nM. The half-life [4] was 4 min, the inhibition at 10 µM (CYP1A2) was 7% and the inhibition at 10 µM (CYP2C9) was 9%. The inhibition at 10 µM (CYP2D6) was 28% and the inhibition at 10 µM (CYP3A4) was 46%.
For COc1cccc(CN(C)C(=O)c2c[nH]c3cc(-c4cn[nH]c4)ccc23)c1, the IC50 [2] was 2 nM, the IC50 [3] was 19 nM and the IC50 [1] was 4300 nM. For the same compound, the half-life [4] was 13 min, the inhibition at 10 µM (CYP1A2) was 70% and the inhibition at 10 µM (CYP2C9) was 94%. For the same compound, the inhibition at 10 µM (CYP2D6) was 50% and the inhibition at 10 µM (CYP3A4) was 38%.
For COc1cccc(CN(CCCN(C)C)C(=O)c2cc3ccc(-c4cn[nH]c4)cc3[nH]2)c1, the IC50 [2] was 10 nM, the IC50 [3] was 46 nM and the IC50 [1] was 1600 nM.
For COc1cccc(CN(CCN2CCCC2)C(=O)c2cc3ccc(-c4cn[nH]c4)nc3n2C)c1, the IC50 [2] was 220 nM, the IC50 [3] was 1000 nM and the IC50 [1] was 2200 nM.
COc1cccc(CN(CCN2CCCC2)C(=O)c2cc3ccc(-c4cn[nH]c4)nc3[nH]2)c1 showed an IC50 [2] of 18 nM, an IC50 [3] of 121 nM and an IC50 [1] of over 20000 nM. The half-life [4] was 21 min, the inhibition at 10 µM (CYP1A2) was 12% and the inhibition at 10 µM (CYP2C9) was 26%. The inhibition at 10 µM (CYP2D6) was 52% and the inhibition at 10 µM (CYP3A4) was 43%.
